Laboratory results: US8426437B2, “Pyrroloquinoline derivatives and their use as protein kinases inhibitors” (Pierre Fabre Medicament, priority 2005, dated 2013)
pIC50: −log10 of the molar value. Structures can show the parent of a compound that is named as a salt.

Molecular target: T1, RET (Homo sapiens, UniProt P07949)
T1 construct: purchased Upstate 14-570MG
Experiment: Inhibition of RET kinase activity, recombinant RET method (Kinase-Glo)
Format: biochemical
Conditions: RET 2 μg/ml, poly-EY4 substrate, 20 μM ATP, two hours at 30° C.
Experimental: The inhibition of the kinase activity of the compounds of the invention is assessed by measuring their IC50 on RET.
where: • Y is the value of the luminescence • X is the logarithm of the concentration of the compound • Bottom is the minimum Y value • Top is the maximum Y value • LogIC50 is the value of X when Y is 50% from Top—Bottom.
The quantity of RET required is 2 μg/ml.
The following buffer is used for dilution of RET: 20 mM MOPS/NaOH pH7.0, 1 mM EDTA, 5% glycerol, 0.01% Brij35 (Sigma B4184), 0.1% 2-mercaptoethanol, 1 mg/ml BSA (Sigma A3059-10G).
The dilution of the compounds of the invention is distributed so as to obtain a scale of final concentrations between 10 nM and 30 μM.
After incubation of the reaction mixture for two hours at 30° C., the level of ATP that remains is assayed using the Kinase-Glo Luminescent Kinase Assay (Promega #V6712) according to the conditions recommended by the supplier. The luminescence induced is read in a plate reader (Envision-Perkin Elmer).

T1 sequence (P07949 29-1114): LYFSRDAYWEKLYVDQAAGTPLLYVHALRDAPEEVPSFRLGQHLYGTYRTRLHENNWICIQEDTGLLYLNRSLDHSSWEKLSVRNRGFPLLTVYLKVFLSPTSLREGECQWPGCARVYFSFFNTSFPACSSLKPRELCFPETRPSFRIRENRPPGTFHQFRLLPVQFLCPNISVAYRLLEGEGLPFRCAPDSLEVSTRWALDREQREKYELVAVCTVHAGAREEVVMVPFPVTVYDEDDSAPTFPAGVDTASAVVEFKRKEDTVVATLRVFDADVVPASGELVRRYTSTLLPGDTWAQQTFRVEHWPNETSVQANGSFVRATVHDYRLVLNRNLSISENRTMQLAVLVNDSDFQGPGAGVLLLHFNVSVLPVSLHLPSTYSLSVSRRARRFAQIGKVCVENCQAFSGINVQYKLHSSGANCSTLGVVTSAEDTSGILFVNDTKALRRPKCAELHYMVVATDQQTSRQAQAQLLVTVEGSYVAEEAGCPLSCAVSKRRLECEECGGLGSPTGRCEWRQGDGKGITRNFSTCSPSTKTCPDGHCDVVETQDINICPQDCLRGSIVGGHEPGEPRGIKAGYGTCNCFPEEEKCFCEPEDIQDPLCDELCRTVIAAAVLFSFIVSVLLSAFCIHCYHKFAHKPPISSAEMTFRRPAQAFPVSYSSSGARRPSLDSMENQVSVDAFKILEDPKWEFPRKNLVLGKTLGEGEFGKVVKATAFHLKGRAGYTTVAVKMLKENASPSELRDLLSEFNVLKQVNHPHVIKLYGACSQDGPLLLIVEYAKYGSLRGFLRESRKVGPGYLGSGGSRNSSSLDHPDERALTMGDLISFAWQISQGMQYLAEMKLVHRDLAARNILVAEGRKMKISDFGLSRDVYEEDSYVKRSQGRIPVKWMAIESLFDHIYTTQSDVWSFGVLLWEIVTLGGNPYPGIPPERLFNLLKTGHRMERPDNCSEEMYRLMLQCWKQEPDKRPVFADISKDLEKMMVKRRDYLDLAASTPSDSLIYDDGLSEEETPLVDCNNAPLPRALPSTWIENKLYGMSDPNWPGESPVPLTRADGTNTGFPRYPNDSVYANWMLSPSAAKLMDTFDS

Compound	pIC50
CCOC(=O)c1c[nH]c2c(=O)[nH]c3ccc(S(=O)(=O)N(C)Cc4ccccc4)cc3c12 [Compound 24, 8-(Benzyl-methyl-sulfamoyl)-4-oxo-4,5-dihydro-3H-pyrrolo[2,3-c]quinoline-1-ethyl carboxylate]	6.00 to 7.00
CCOC(=O)c1c[nH]c2c(=O)[nH]c3ccc(-c4ccc(OC)nc4)cc3c12 [Compound 260, 8-(6-Methoxy-pyridin-3-yl)-4-oxo-4,5-dihydro-3H-pyrrolo[2,3-c]quinoline-1-ethyl carboxylate]	5.00 to 6.00
CCOC(=O)c1c[nH]c2c(=O)[nH]c3ccc(NS(=O)(=O)c4cccc(C)c4)cc3c12 [Compound 48, 4-Oxo-8-(3-toluenesulfonylamino)-4,5-dihydro-3H-pyrrolo[2,3-c]quinoline-1-ethyl carboxylate]	4.00 to 5.00
O=C(NCC1CCCCC1)c1c[nH]c2c(=O)[nH]c3ccccc3c12 [Compound 82, N-(Cyclohexylmethyl)-4-oxo-4,5-dihydro-3H-pyrrolo[2,3-c]quinoline-1-carboxamide]	4.00 to 5.00
CCOC(=O)c1c[nH]c2c(=O)[nH]c3ccc(-c4ccno4)cc3c12 [Compound 281, 8-Isoxazol-5-yl-4-oxo-4,5-dihydro-3H-pyrrolo[2,3-c]quinoline-1-ethyl carboxylate]	6.00 to 7.00
CCOC(=O)c1c[nH]c2c(=O)[nH]c3ccc(S(=O)(=O)NC4CCCCC4)cc3c12 [Compound 30, 8-Cyclohexylsulfamoyl-4-oxo-4,5-dihydro-3H-pyrrolo[2,3-c]quinoline-1-ethyl carboxylate]	6.00 to 7.00
CCOC(=O)c1c[nH]c2c(=O)[nH]c3ccc(S(=O)(=O)Nc4ccc(N5CCOCC5)cc4)cc3c12 [Compound 22, 8-(4-Morpholin-4-yl-phenylsulfamoyl)-4-oxo-4,5-dihydro-3H-pyrrolo[2,3-c]quinoline-1-ethyl carboxylate]	4.00 to 5.00
C#CCN(CCN(C(=O)OC(C)(C)C)C(C)C)S(=O)(=O)c1ccc2[nH]c(=O)c3[nH]cc(C(=O)OCCC)c3c2c1 [Compound 159, 8-{[2-(tert-Butoxycarbonyl-isopropyl-amino)-ethyl]-prop-2-ynyl-sulfamoyl}-4-oxo-4,5-dihydro-3H-pyrrolo[2,3-c]quinoline-1-propyl carboxylate]	5.00 to 6.00
CCOC(=O)c1c[nH]c2c(=O)[nH]c3ccc(-c4ccccc4N)cc3c12 [Compound 231, 8-(2-Aminophenyl)-4-oxo-4,5-dihydro-3H-pyrrolo[2,3-c]quinoline-1-ethyl carboxylate]	6.00 to 7.00
CCOC(=O)c1c[nH]c2c(=O)[nH]c3ccc(/C=C/C(=O)NCCC(=O)OC)cc3c12 [Compound 69, 8-[2-(2-Methoxycarbonyl-ethylcarbamoyl)-vinyl]-4-oxo-4,5-dihydro-3H-pyrrolo[2,3-c]quinoline-1-ethyl carboxylate]	5.00 to 6.00
CCOC(=O)c1c[nH]c2c(=O)[nH]c3ccc(C#CCN4CCOCC4)cc3c12 [Compound 205, 8-(3-Morpholin-4-yl-prop-1-ynyl)-4-oxo-4,5-dihydro-3H-pyrrolo[2,3-c]quinoline-1-ethyl carboxylate]	6.00 to 7.00
CCOC(=O)c1c[nH]c2c(=O)[nH]c3ccc(CCC(C)(C)O)cc3c12 [Compound 208, 8-(3-Hydroxy-3-methyl-butyl)-4-oxo-4,5-dihydro-3H-pyrrolo[2,3-c]quinoline-1-ethyl carboxylate]	6.00 to 7.00
COC(=O)c1c[nH]c2c(=O)[nH]c3ccc(S(=O)(=O)NN4CCN(C)CC4)cc3c12 [Compound 193, 8-(4-Methyl-piperazin-1-ylsulfamoyl)-4-oxo-4,5-dihydro-3H-pyrrolo[2,3-c]quinoline-1-methyl carboxylate]	5.00 to 6.00
CCOC(=O)c1c[nH]c2c(=O)[nH]c3ccc(C#C[Si](C)(C)C)cc3c12 [Compound 200, 4-Oxo-8-trimethylsilanylethynyl-4,5-dihydro-3H-pyrrolo[2,3-c]quinoline-1-ethyl carboxylate]	5.00 to 6.00
O=C(NCc1ccccc1)c1c[nH]c2c(=O)[nH]c3ccccc3c12 [Compound 83, N-(Benzyl)-4-oxo-4,5-dihydro-3H-pyrrolo[2,3-c]quinoline-1-carboxamide]	4.00 to 5.00
CCCOC(=O)c1c[nH]c2c(=O)[nH]c3cc(OC)c(S(=O)(=O)N(C)C4CC4)cc3c12 [Compound 188]	5.00 to 6.00
CCCOC(=O)c1c[nH]c2c(=O)[nH]c3cc(F)c(S(=O)(=O)N(CCO)C(C)C)cc3c12 [Compound 185, 7-Fluoro-8-[(2-hydroxy-ethyl)-isopropyl-sulfamoyl]-4-oxo-4,5-dihydro-3H-pyrrolo[2,3-c]quinoline-1-propyl carboxylate]	> 7.00
O=C(Nc1ccccc1)c1c[nH]c2c(=O)[nH]c3ccccc3c12 [Compound 87, N-(Phenyl)-4-oxo-4,5-dihydro-3H-pyrrolo[2,3-c]quinoline-1-carboxamide]	4.00 to 5.00
CCOC(=O)c1c[nH]c2c(=O)[nH]c3ccc(-c4csc(-c5ccccc5)n4)cc3c12 [Compound 279, 4-Oxo-8-(2-phenyl-thiazol-4-yl)-4,5-dihydro-3H-pyrrolo[2,3-c]quinoline-1-ethyl carboxylate]	5.00 to 6.00
C#CCN(CCNC(C)C)S(=O)(=O)c1ccc2[nH]c(=O)c3[nH]cc(C(=O)OCCC)c3c2c1 [Compound 158, 8-[(2-isopropylamino-ethyl)-prop-2-ynyl-sulfamoyl]-4-oxo-4,5-dihydro-3H-pyrrolo[2,3-c]quinoline-1-propyl carboxylate hydrochloride]	6.00 to 7.00
CCOC(=O)c1c[nH]c2c(=O)[nH]c3ccc(NS(=O)(=O)c4cccc(OC)c4)cc3c12 [Compound 51, 8-(3-Methoxy-benzenesulfonylamino)-4-oxo-4,5-dihydro-3H-pyrrolo[2,3-c]quinoline-1-ethyl carboxylate]	5.00 to 6.00
CCOC(=O)c1c[nH]c2c(=O)[nH]c3cc(Cl)ccc3c12 [Compound 216, 7-Chloro-4-oxo-4,5-dihydro-3H-pyrrolo[2,3-c]quinoline-1-ethyl carboxylate]	5.00 to 6.00
CCCOC(=O)c1c[nH]c2c(=O)[nH]c3ccc(S(=O)(=O)N4CCC(NC)C4)cc3c12 (stereo not drawn) [Compound 168, 8-(3-Methylamino-pyrrolidine-1-sulfonyl)-4-oxo-4,5-dihydro-3H-pyrrolo[2,3-c]quinoline-1-propyl carboxylate hydrochloride]	6.00 to 7.00
CCCOC(=O)c1c[nH]c2c(=O)[nH]c3ccc(-c4cccc(S(C)(=O)=O)c4)cc3c12 [Compound 254, 8-(3-Methanesulfonyl-phenyl)-4-oxo-4,5-dihydro-3H-pyrrolo[2,3-c]quinoline-1-propyl carboxylate]	6.00 to 7.00
CCOC(=O)c1c[nH]c2c(=O)[nH]c3ccc(NC(C)=O)cc3c12 [Compound 61, 8-Acetylamino-4-oxo-4,5-dihydro-3H-pyrrolo[2,3-c]quinoline-1 ethyl carboxylate]	5.00 to 6.00
CCOC(=O)c1c[nH]c2c(=O)[nH]c3ccc(S(=O)(=O)N4CCC[C@H]4CN4CCCC4)cc3c12 [Compound 163, (S)-4-Oxo-8-(2-pyrrolidin-1-ylmethyl-pyrrolidine-1-sulfonyl)-4,5-dihydro-3H-pyrrolo[2,3-c]quinoline-1-ethyl carboxylate]	6.00 to 7.00
CCCOC(=O)c1c[nH]c2c(=O)[nH]c3ccc(S(=O)(=O)N(CCO)CCO)cc3c12 [Compound 176, 8-[bis-(2-Hydroxy-ethyl)-sulfamoyl]-4-oxo-4,5-dihydro-3H-pyrrolo[2,3-c]quinoline-1-propyl carboxylate]	6.00 to 7.00
